Measurements: US8053553B2, “Targeting host proteinases as a therapeutic strategy against viral and bacterial pathogens” (Socpra Sciences Sante Et Humaines, priority 2007, dated 2011)
Non-standard residues stand in square brackets, D forms with d. Residues, ends and D or L forms follow the SMILES beside them. Sar = CNCC(=O)O

The compounds below were run against T1, furin (Homo sapiens, UniProt P09958) (assay: biochemical). Conditions: furin, Pyr-RTKR-AMC substrate; alanine scanning mutagenesis of the H5 furin cleavage sequence (Table 2); read-out: Ki.
T1 construct: made in house; host or cells: Drosophila S2 cells (Invitrogen expression system)
T1 sequence (P09958 108-794 limits assumed): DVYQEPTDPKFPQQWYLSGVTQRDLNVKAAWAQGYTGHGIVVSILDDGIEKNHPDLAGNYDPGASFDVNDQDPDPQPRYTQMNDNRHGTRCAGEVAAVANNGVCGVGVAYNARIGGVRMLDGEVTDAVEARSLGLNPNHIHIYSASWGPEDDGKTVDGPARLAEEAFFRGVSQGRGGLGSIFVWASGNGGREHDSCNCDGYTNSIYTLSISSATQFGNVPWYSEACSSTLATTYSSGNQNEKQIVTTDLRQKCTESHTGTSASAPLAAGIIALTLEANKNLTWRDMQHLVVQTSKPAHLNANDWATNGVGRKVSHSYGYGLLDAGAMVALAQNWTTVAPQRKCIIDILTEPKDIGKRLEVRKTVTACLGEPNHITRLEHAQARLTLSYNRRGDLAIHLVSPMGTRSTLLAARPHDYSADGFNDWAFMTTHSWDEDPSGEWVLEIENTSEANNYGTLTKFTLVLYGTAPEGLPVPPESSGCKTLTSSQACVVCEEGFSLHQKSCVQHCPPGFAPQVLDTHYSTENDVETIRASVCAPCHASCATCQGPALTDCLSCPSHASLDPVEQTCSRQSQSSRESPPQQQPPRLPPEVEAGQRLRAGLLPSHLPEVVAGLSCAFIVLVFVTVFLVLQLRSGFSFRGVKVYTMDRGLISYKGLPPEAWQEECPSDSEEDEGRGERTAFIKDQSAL

Row | SMILES | Ki [nM]
1 | C[C@H](NC(=O)[C@H](C)NC(=O)[C@H](CCCNC(=N)N)NC(=O)[C@H](CCCNC(=N)N)NC(=O)[C@H](CCCNC(=N)N)NC(=O)[C@H](CCC(=O)O)NC(=O)[C@H](CCCNC(=N)N)NC(=O)[C@@H]1CCCN1C(=O)[C@@H](N)[C@@H](C)O)C(=O)N[C@@H](CCCNC(=N)N)C(=O)NCC(N)=O | > 100
2 | CC(C)[C@H](NC(=O)[C@H](C)NC(=O)[C@H](CCCCN)NC(=O)[C@H](CCCCN)NC(=O)[C@H](CCCNC(=N)N)NC(=O)[C@H](CCCNC(=N)N)NC(=O)[C@H](CCCNC(=N)N)NC(=O)[C@H](CCC(=O)O)NC(=O)[C@H](CCCNC(=N)N)NC(=O)[C@@H]1CCCN1C(=O)[C@@H](N)[C@@H](C)O)C(N)=O (H-TPRERRRKKAV-NH2) | > 100
3 | C[C@H](N)C(=O)N[C@@H](C)C(=O)N[C@@H](CCCNC(=N)N)C(=O)N[C@@H](CCC(=O)O)C(=O)N[C@@H](CCCNC(=N)N)C(=O)N[C@@H](CCCNC(=N)N)C(=O)N[C@@H](CCCNC(=N)N)C(=O)N[C@@H](CCCCN)C(=O)N[C@@H](CCCCN)C(=O)N[C@@H](CCCNC(=N)N)C(N)=O (H-AARERRRKKR-NH2) | > 100
4 | C[C@H](NC(=O)[C@H](C)NC(=O)[C@H](CCCNC(=N)N)NC(=O)[C@H](CCCNC(=N)N)NC(=O)[C@H](CCC(=O)O)NC(=O)[C@H](CCCNC(=N)N)NC(=O)[C@@H]1CCCN1C(=O)[C@@H](N)[C@@H](C)O)C(=O)N[C@@H](CCCCN)C(=O)N[C@@H](CCCNC(=N)N)C(=O)N(C)CC(N)=O (H-TPRERRAAKR[Sar]-NH2) | > 100
5 | C[C@@H](O)[C@H](N)C(=O)N1CCC[C@H]1C(=O)N[C@@H](CCCNC(=N)N)C(=O)N[C@@H](CCC(=O)O)C(=O)N[C@@H](CCCNC(=N)N)C(=O)N[C@@H](CCCNC(=N)N)C(=O)N[C@@H](CCCNC(=N)N)C(=O)N[C@@H](CCCCN)C(=O)N[C@@H](CCCCN)C(=O)N[C@@H](CCCNC(=N)N)C(=O)N(C)CC(N)=O (H-TPRERRRKKR[Sar]-NH2) | > 100
6 | C[C@H](N)C(=O)N[C@@H](C)C(=O)N[C@@H](CCCNC(=N)N)C(=O)N[C@@H](CCC(=O)O)C(=O)N[C@@H](CCCNC(=N)N)C(=O)N[C@@H](CCCNC(=N)N)C(=O)N[C@@H](CCCNC(=N)N)C(=O)N[C@@H](CCCCN)C(=O)N[C@@H](CCCCN)C(=O)N[C@@H](CCCNC(=N)N)C(=O)NCC(N)=O (H-AARERRRKKRG-NH2) | > 100
7 | C[C@H](N)C(=O)N1CCC[C@H]1C(=O)N[C@@H](CCCNC(=N)N)C(=O)N[C@@H](CCC(=O)O)C(=O)N[C@@H](CCCNC(=N)N)C(=O)N[C@@H](CCCNC(=N)N)C(=O)N[C@@H](CCCNC(=N)N)C(=O)N[C@@H](CCCCN)C(=O)N[C@@H](CCCCN)C(=O)N[C@@H](CCCNC(=N)N)C(=O)NCC(N)=O (H-APRERRRKKRG-NH2) | > 100
8 | C[C@H](NC(=O)[C@H](C)NC(=O)[C@H](CCC(=O)O)NC(=O)[C@H](CCCNC(=N)N)NC(=O)[C@@H]1CCCN1C(=O)[C@@H](N)[C@@H](C)O)C(=O)N[C@@H](CCCNC(=N)N)C(=O)N[C@@H](CCCCN)C(=O)N[C@@H](CCCCN)C(=O)N[C@@H](CCCNC(=N)N)C(N)=O (H-TPREAARKKR-NH2) | > 100
9 | C[C@H](NC(=O)[C@H](C)NC(=O)[C@@H]1CCCN1C(=O)[C@@H](N)[C@@H](C)O)C(=O)N[C@@H](CCCNC(=N)N)C(=O)N[C@@H](CCCNC(=N)N)C(=O)N[C@@H](CCCNC(=N)N)C(=O)N[C@@H](CCCCN)C(=O)N[C@@H](CCCCN)C(=O)N[C@@H](CCCNC(=N)N)C(=O)NCC(N)=O (H-TPAARRRKKRG-NH2) | > 100
10 | C[C@H](NC(=O)[C@H](C)NC(=O)[C@H](CCC(=O)O)NC(=O)[C@H](CCCNC(=N)N)NC(=O)[C@@H]1CCCN1C(=O)[C@@H](N)[C@@H](C)O)C(=O)N[C@@H](CCCNC(=N)N)C(=O)N[C@@H](CCCCN)C(=O)N[C@@H](CCCCN)C(=O)N[C@@H](CCCNC(=N)N)C(=O)NCC(N)=O (H-TPREAARKKRG-NH2) | > 100
11 | CC(C)[C@H](NC(=O)[C@H](CCCNC(=N)N)NC(=O)[C@H](CCCCN)NC(=O)[C@H](CCCCN)NC(=O)[C@H](CCCNC(=N)N)NC(=O)[C@H](C)NC(=O)[C@H](CCCNC(=N)N)NC(=O)[C@H](CCC(=O)O)NC(=O)[C@H](CCCNC(=N)N)NC(=O)[C@@H]1CCCN1C(=O)[C@@H](N)[C@@H](C)O)C(N)=O (H-TPRERARKKRV-NH2) | > 100
12 | C[C@H](NC(=O)[C@H](C)NC(=O)[C@H](CCCNC(=N)N)NC(=O)[C@H](CCC(=O)O)NC(=O)[C@H](CCCNC(=N)N)NC(=O)[C@@H]1CCCN1C(=O)[C@@H](N)[C@@H](C)O)C(=O)N[C@@H](CCCCN)C(=O)N[C@@H](CCCCN)C(=O)N[C@@H](CCCNC(=N)N)C(N)=O (H-TPRERAAKKR-NH2) | > 100
13 | CC(C)[C@H](NC(=O)[C@H](CCCNC(=N)N)NC(=O)[C@H](CCCCN)NC(=O)[C@H](CCCCN)NC(=O)[C@H](C)NC(=O)[C@H](CCCNC(=N)N)NC(=O)[C@H](CCCNC(=N)N)NC(=O)[C@H](CCC(=O)O)NC(=O)[C@H](CCCNC(=N)N)NC(=O)[C@@H]1CCCN1C(=O)[C@@H](N)[C@@H](C)O)C(N)=O (H-TPRERRAKKRV-NH2) | > 100
14 | C[C@H](NC(=O)[C@@H]1CCCN1C(=O)[C@@H](N)[C@@H](C)O)C(=O)N[C@@H](CCC(=O)O)C(=O)N[C@@H](CCCNC(=N)N)C(=O)N[C@@H](CCCNC(=N)N)C(=O)N[C@@H](CCCNC(=N)N)C(=O)N[C@@H](CCCCN)C(=O)N[C@@H](CCCCN)C(=O)N[C@@H](CCCNC(=N)N)C(=O)N(C)CC(N)=O (H-TPAERRRKKR[Sar]-NH2) | > 100
15 | C[C@H](NC(=O)[C@H](C)NC(=O)[C@H](CCC(=O)O)NC(=O)[C@H](CCCNC(=N)N)NC(=O)[C@@H]1CCCN1C(=O)[C@@H](N)[C@@H](C)O)C(=O)N[C@@H](C)C(=O)N[C@@H](CCCCN)C(=O)N[C@@H](CCCCN)C(=O)N[C@@H](CCCNC(=N)N)C(=O)NCC(N)=O (H-TPREAAAKKRG-NH2) | > 100
16 | C[C@H](NC(=O)[C@H](C)NC(=O)[C@@H]1CCCN1C(=O)[C@@H](N)[C@@H](C)O)C(=O)N[C@@H](CCCNC(=N)N)C(=O)N[C@@H](CCCNC(=N)N)C(=O)N[C@@H](CCCNC(=N)N)C(=O)N[C@@H](CCCCN)C(=O)N[C@@H](CCCCN)C(=O)N[C@@H](CCCNC(=N)N)C(=O)N(C)CC(N)=O (H-TPAARRRKKR[Sar]-NH2) | > 100
17 | CC(C)[C@H](NC(=O)[C@H](CCCNC(=N)N)NC(=O)[C@H](CCCCN)NC(=O)[C@H](CCCCN)NC(=O)[C@H](CCCNC(=N)N)NC(=O)[C@H](CCCNC(=N)N)NC(=O)[C@H](CCCNC(=N)N)NC(=O)[C@H](CCC(=O)O)NC(=O)[C@H](CCCNC(=N)N)NC(=O)[C@H](C)NC(=O)[C@H](C)N)C(N)=O (H-AARERRRKKRV-NH2) | > 100

Same assay, conditions: furin, Pyr-RTKR-AMC substrate; optimization of the inhibitory peptides (Table 3); read-out: Ki

Row | SMILES | Ki [nM]
18 | CC(C)C[C@H](NC(=O)[C@H](CCCNC(=N)N)NC(=O)[C@H](CCC(N)=O)NC(=O)[C@@H]1CCCN1C(=O)[C@@H](N)[C@@H](C)O)C(=O)N[C@@H](CCCNC(=N)N)C(=O)N[C@@H](CCCNC(=N)N)C(=O)N[C@@H](CCCNC(=N)N)C(=O)N[C@@H](CCCCN)C(=O)N[C@@H](CCCCN)C(=O)N[C@@H](CCCNC(=N)N)C(=O)NCC(N)=O | > 100
19 | C[C@@H](O)[C@H](N)C(=O)N1CCC[C@H]1C(=O)N[C@@H](CCCN=C(N)N)C(=O)NCC(=O)N[C@@H](CCCN=C(N)N)C(=O)N[C@@H](CCCN=C(N)N)C(=O)N[C@@H](CCCN=C(N)N)C(=O)N[C@@H](CCCCN)C(=O)N[C@@H](CCCCN)C(=O)N[C@@H](CCCN=C(N)N)C(=O)NCC(N)=O (H-TPRGRRRKKRG-NH2) | 47
20 | C[C@@H](O)[C@H](N)C(=O)N1CCC[C@H]1C(=O)N[C@@H](CCC(N)=O)C(=O)N[C@@H](CCCNC(=N)N)C(=O)N[C@@H](CCCNC(=N)N)C(=O)N[C@@H](CCCNC(=N)N)C(=O)N[C@@H](CCCNC(=N)N)C(=O)N[C@@H](CCCNC(=N)N)C(=O)N[C@@H](CCCCN)C(=O)N[C@@H](CCCCN)C(=O)N[C@@H](CCCNC(=N)N)C(=O)NCC(N)=O | > 100
21 | CC(C)[C@H](NC(=O)[C@H](CCCNC(=N)N)NC(=O)[C@H](CCC(N)=O)NC(=O)[C@@H]1CCCN1C(=O)[C@@H](N)[C@@H](C)O)C(=O)N[C@@H](CCCNC(=N)N)C(=O)N[C@@H](CCCNC(=N)N)C(=O)N[C@@H](CCCNC(=N)N)C(=O)N[C@@H](CCCCN)C(=O)N[C@@H](CCCCN)C(=O)N[C@@H](CCCNC(=N)N)C(=O)NCC(N)=O (H-TPQRVRRRKKRG-NH2) | > 100
22 | C[C@H](NC(=O)[C@H](CCCNC(=N)N)NC(=O)[C@H](CCC(N)=O)NC(=O)[C@@H]1CCCN1C(=O)[C@@H](N)[C@@H](C)O)C(=O)N[C@@H](CCCNC(=N)N)C(=O)N[C@@H](CCCNC(=N)N)C(=O)N[C@@H](CCCNC(=N)N)C(=O)N[C@@H](CCCCN)C(=O)N[C@@H](CCCCN)C(=O)N[C@@H](CCCNC(=N)N)C(=O)N[C@@H](CCC(N)=O)C(N)=O (H-TPQRARRRKKRQ-NH2) | > 100
23 | C[C@H](NC(=O)[C@H](CCCNC(=N)N)NC(=O)[C@H](CCC(N)=O)NC(=O)[C@@H]1CCCN1C(=O)[C@@H](N)[C@@H](C)O)C(=O)N[C@@H](CCCNC(=N)N)C(=O)N[C@@H](CCCNC(=N)N)C(=O)N[C@@H](CCCNC(=N)N)C(=O)N[C@@H](CCCCN)C(=O)N[C@@H](CCCCN)C(=O)N[C@@H](CCCNC(=N)N)C(=O)N[C@@H](Cc1c[nH]c2ccccc12)C(N)=O (H-TPQRARRRKKRW-NH2) | 34
24 | CC(C)C[C@H](NC(=O)[C@H](CCCNC(=N)N)NC(=O)[C@H](CCCCN)NC(=O)[C@H](CCCCN)NC(=O)[C@H](CCCNC(=N)N)NC(=O)[C@H](CCCNC(=N)N)NC(=O)[C@H](CCCNC(=N)N)NC(=O)[C@H](C)NC(=O)[C@H](CCCNC(=N)N)NC(=O)[C@H](CCC(N)=O)NC(=O)[C@@H]1CCCN1C(=O)[C@@H](N)[C@@H](C)O)C(N)=O (H-TPQRARRRKKRL-NH2) | > 100
25 | C[C@@H](O)[C@H](N)C(=O)N1CCC[C@H]1C(=O)N[C@@H](CCC(N)=O)C(=O)N[C@@H](CCCNC(=N)N)C(=O)N[C@@H](CCC(=O)O)C(=O)N[C@@H](CCCNC(=N)N)C(=O)N[C@@H](CCCNC(=N)N)C(=O)N[C@@H](CCCNC(=N)N)C(=O)N[C@@H](CCCCN)C(=O)N[C@@H](CCCCN)C(=O)N[C@@H](CCCNC(=N)N)C(=O)NCC(N)=O | > 100
26 | C[C@@H](O)[C@H](N)C(=O)N1CCC[C@H]1C(=O)N[C@@H](CCC(N)=O)C(=O)N[C@@H](CCCNC(=N)N)C(=O)N[C@@H](CO)C(=O)N[C@@H](CCCNC(=N)N)C(=O)N[C@@H](CCCNC(=N)N)C(=O)N[C@@H](CCCNC(=N)N)C(=O)N[C@@H](CCCCN)C(=O)N[C@@H](CCCCN)C(=O)N[C@@H](CCCNC(=N)N)C(=O)NCC(N)=O (H-TPQRSRRRKKRG-NH2) | > 100
